Measured values published in PMC5686179, “Phage display and selection of lanthipeptides on the carboxy-terminus of the gene-3 minor coat protein” (Nature Communications, 2017).
Ends that are not written are not given here.

How the values were obtained:
[1] = tested on: nisin-sensitive L. lactis NZ9000; assay: Growth inhibition, filter-disc bioactivity assay (nisin); type: cell-based; settings: NisA produced as C-terminal MBP fusion in E. coli with NisBC; 20 µM leader-core peptide, trypsin treated; 40 µl on filter disc
Source text: (§1) MBP IEGR His6 leader core peptide
(§2) LctA-core […] NisA-core […]
(§3) ProcM enz yme NisBC enzymes […]
(§4) modified KGGSGVIHAbuIAHEANMNAWQFVFDhbAAS modified IDhbAIDhaLAAbuPGAKAbuGALMGANMKAbuAAbuAHASIHVDhaK […]
(§5) 1: PBS + trypsin 1: PBS + trypsin
(§6) 2: Authentic lacticin 481 2: Authentic Nisin
(§7) 3: MBP_His6_P roc A 3. 3-LctA + trypsin 3: MBP_His6_NisA + trypsin
(§8) 4: MBP_His6_P roc A 3. 3-Lc tA + ProcM + trypsin 4: MBP_His6_NisA + NisBC + trypsin
(§9) Supplementary Figure 3 Bioactivit y assay of lanthipeptides produced as C-term inal fusions to MBP.
(§10) (a) Schem atic drawing of the MBP-fusion vector used for expression of a chim eric peptide consisting of the ProcA3.3 leader sequence fused to the core of LctA (left panel) and NisA (right panel; full sequences shown in Supplem entary Table 5). The sequence of the unm odified and m odified core peptides as reported in the literature are indicated1. The arrow indicates a tr ypsin cleavage site used to release the m ature core peptide. (b) Growth inhibition of lacticin 481- sensitive L. lactis cremonis (HP) by filter- disc spotted peptide solutions. (1) Trypsin treated PBS (negative control); (2) authentic lacticin 481 (positive control); (3) ProcA3.3-LctA produced as C-term inal MBP fusion in E. coli without ProcM co- expression and treated with tr yps in; (4) ProcA3.3- LctA produced as C-term inal MBP fusion in E. coli with ProcM co-ex pression and treated with tr ypsin. […]

[2] = tested on: lacticin 481-sensitive L. lactis cremonis (HP); assay: Growth inhibition, filter-disc bioactivity assay (lacticin 481); type: cell-based, L. lactis subsp. cremonis (HP); settings: ProcA3.3-LctA produced as C-terminal MBP fusion in E. coli with ProcM; 20 µM leader-core peptide, trypsin treated; 40 µl on filter disc
Source text: as §1, §2, §3, §4, §5, §6, §7, §8, §9, §10

streptavidin = assay: ELISA for streptavidin binding of purified His6-tagged leader-core peptides; settings: plates coated with 100 nM streptavidin; for streptavidin binding, effect of reducing conditions: 10 mM DTT vs non-reducing; for streptavidin binding, dependence on ProcM co-expression: peptide produced with or without ProcM, 1 h room temperature, anti-His detection
Protocol: Peptide candidates identified by phage display were produced and purified as leader-core peptides as described above. 384 well Maxisorp plates were coated with uPA or streptavidin (100 nM each) overnight at 4 °C. After washing and blocking the plates as described above, serial dilutions of the peptide preparations in PBST containing 0.5% (w v^−1) BSA (and 10 mM DTT for anti-streptavidin replicates) were added in duplicate, and plates incubated for 1 h at room temperature, shaking. Detection of bound peptides with AP-conjugated anti-His IgG was performed as described above.

human uPA = molecular target: T1, human uPA (Homo sapiens, UniProt P00749); assay: Inhibition of uPA catalytic activity, fluorogenic substrate; type: biochemical; settings: PEP333 leader-core peptide, ProcM-modified; 1.5 nM human uPA; 50 µM Z-Gly-Gly-Arg 7-amido-4-methylcoumarin; 10 mM Tris-HCl pH 7.4, 5% DMSO; 25°C, 30 min; fluorescence 355/460 nm; experiment repeated three times; read-out: inhibitory constant Ki
T1 construct: purchased ProsPec enz-264-c
Protocol: Determination of inhibitory activit y of lanthipeptides
The inhibitory activities of ProcM-modified and non- modified anti-uPA peptides were determined as previously described2. In brief, 1.5 nM human uPA (ProsPec, # enz-264- c; purified by size exclusion chromatography) were incubated with 50 µM of the fluorogenic substrate Z-Gly-Gly-Arg 7 -am ido-4-methylcoumarin hydrochloride (Santa Cruz Biotechnology, # sc-208012) and different concentrations of anti-uPA peptides. Substrate and peptides were diluted in 10 mM Tris-HCl (pH 7.4), 150 mM NaCl, 10 mM MgCl2, 1 m M CaCl2, 0.1% (w v-1) BSA, 0.01% Triton X-100, 5% (v v-1) DMSO buff er. The uPA activity was measured by monitoring the change in fluorescence intensity after an incubation step at 25°C for 30 minutes (black 96 well plate with clear flat bottom, Corning CellBIND, # 3340; excitation at 355 nm, emission recorded at 460 nm, Tecan M200pro, […]). A […]
Anal ysis of phage-selected peptides by mass spectrometry
Samples were analyzed by FTMS using a Shimadzu UFLC system (Shimadzu, Den Bosch, The Netherlands) coupled on- line via the HESI interface with a LTQ–Orbitrap- XL mass spectrometer (Thermo Fisher Scientific., San Jose, CA). Samples were loaded onto an Acquity UPLC, BEH C18. 50 x 2.1mm, 1.7µM (Waters, Ireland). […]

Substance | streptavidin binding, effect of reducing conditions (streptavidin) | streptavidin binding, dependence on ProcM co-expression (streptavidin) | other results
IDhbAIDhaLAAbuPGAKAbuGALMGANMKAbuAAbuAHASIHVDhaK (bicyclic or more) [nisin, antimicrobial lantibiotic, expressed as C-terminal MBP fusion with NisBC] | – | – | antimicrobial activity [1]: confirmed their antimicrobial activity
KGGSGVIHAbuIAHEANMNAWQFVFDhbAAS (bicyclic or more) [lacticin 481] | – | – | antimicrobial activity [2]: confirmed their antimicrobial activity
ANCIQHLTHSPTVHKYFCPAAGPHHHHHH (also: bicyclic or more (positions not given here)) [PEP331] | only a slight reduction in binding was noticed in a reducing environment | strictly dependent on post-translational modifications introduced by ProcM | –
TNCGRKMSATYSGQKMYCIAAGPHHHHHH (also: bicyclic or more (positions not given here)) [PEP330] | reducing conditions had only minor effects | bound streptavidin regardless of ProcM co-expression | –
AICQIADATRTGENRKCLAAGPHHHHHH (also: sidechain bridge or staple (positions not given here)) [PEP333] | – | – | Ki (human uPA): 564 nM
